Columns and labels:
[1] = tested on: soybean; assay: Soil treatment test for upland field; assay type: in vivo; design: key: 0 = normal development, 5 = all killed; settings: 500 g/ha, 3 weeks, glass house 25° C.
Protocol: (§1) The herbicidal effects are evaluated according to the following 6 ranks as compared with non-treated district. (0: normal development, 1: Less damaged, 2: Slightly damaged, 3: Moderately damaged, 4: Severely damaged, 5: All killed). Incidentally, “-” in the column means not investigated.
(§2) Wagner pots, each having an area of 1/5000 are, were packed with Ube soil (alluvial soil), and then each seed of corn, soybean, cotton, wheat, solgum, sugar beat, Large crabgrass, barnyard grass, green foxtail, blackgrass, annual bluegrass, common lambsquarters, livid amaranth, velvetleaf, morning glory, common Cocklebur (Xanthium strumarium) and sicklepod (Cassia obtusifolia) were planted and covered with soil.
(§3) Each wettable powder of the desired compounds (I) shown in Tables 1 to 21, 24, 25, 28 and 29 prepared in accordance with Example 2 was diluted with water containing a surfactant (0.05%) and uniformly sprayed on the surface of each soil so that an effective concentration of the compound (I) in each herbicide became 500 g/ha.
(§4) These plants were controlled in a glass house at an average temperature of 25° C. for 3 weeks, and then herbicidal effects thereof were investigated.
(§5) The herbicidal effects were evaluated according to the evaluation method described in the above (1).

[2] = tested on: wheat; assay: Soil treatment test for upland field; assay type: in vivo; design: key: 0 = normal development, 5 = all killed; settings: 500 g/ha, 3 weeks, glass house 25° C.
Protocol: as §1, §2, §3, §4, §5

[3] = tested on: corn; assay: Soil treatment test for upland field; assay type: in vivo; design: key: 0 = normal development, 5 = all killed; settings: 500 g/ha, 3 weeks, glass house 25° C.
Protocol: as §1, §2, §3, §4, §5

[4] = tested on: green foxtail; assay: Soil treatment test for upland field; assay type: in vivo, Setaria viridis; design: key: 0 = normal development, 5 = all killed; settings: 500 g/ha, 3 weeks, glass house 25° C.
Protocol: as §1, §2, §3, §4, §5

[5] = tested on: common lambsquarters; assay: Soil treatment test for upland field; assay type: in vivo, Chenopodium album; design: key: 0 = normal development, 5 = all killed; settings: 500 g/ha, 3 weeks, glass house 25° C.
Protocol: as §1, §2, §3, §4, §5

[6] = tested on: Large crabgrass; assay: Soil treatment test for upland field; assay type: in vivo, Digitaria adscendens; design: key: 0 = normal development, 5 = all killed; settings: 500 g/ha, 3 weeks, glass house 25° C.
Protocol: as §1, §2, §3, §4, §5

[7] = tested on: livid amaranth; assay: Soil treatment test for upland field; assay type: in vivo, Amaranthus lividus; design: key: 0 = normal development, 5 = all killed; settings: 500 g/ha, 3 weeks, glass house 25° C.
Protocol: as §1, §2, §3, §4, §5

[8] = tested on: Large crabgrass; assay: Foliar spread test for upland field; assay type: in vivo, Digitaria adscendens; design: key: 0 = normal development, 5 = all killed (6 ranks vs. untreated); settings: foliar spray, 500 ppm, 3 weeks, glass house 25° C.
Protocol: as §1
(§6) Wagner pots, each having an area of 1/5000 are, were packed with volcanic ash soil and then each seed of corn, soybean, cotton, wheat, solgum, sugar beat, Large crabgrass, barnyardgrjass, green foxtail, blackgrass, annual bluegrass, common lambsquarters, livid amaranth, velvetleaf, morning glory, Xanthium pensylvanicum and Cassia obtusifolia was planted, covered with soil and grown in a glass house at an average temperature of 25° C. for about 2 weeks.
(§7) Each wettable powder of the desired compounds (I) shown in Tables 1 to 21, 24, 25, 28 and 29 prepared in accordance with Example 2 was diluted to 500 ppm with water containing a surfactant (0.5%) and then uniformly sprayed on the above respective plants.
(§8) After these plants were controlled in a glass house at an average temperature of 25° C. for 3 weeks, the herbicidal effects thereof were investigated.
as §5

[9] = tested on: annual bluegrass; assay: Soil treatment test for upland field; assay type: in vivo, Poa annua; design: key: 0 = normal development, 5 = all killed; settings: 500 g/ha, 3 weeks, glass house 25° C.
Protocol: as §1, §2, §3, §4, §5

[10] = tested on: livid amaranth; assay: Foliar spread test for upland field; assay type: in vivo, Amaranthus lividus; design: key: 0 = normal development, 5 = all killed (6 ranks vs. untreated); settings: foliar spray, 500 ppm, 3 weeks, glass house 25° C.
Protocol: as §1, §6, §7, §8, §5

[11] = tested on: green foxtail; assay: Foliar spread test for upland field; assay type: in vivo, Setaria viridis; design: key: 0 = normal development, 5 = all killed (6 ranks vs. untreated); settings: foliar spray, 500 ppm, 3 weeks, glass house 25° C.
Protocol: as §1, §6, §7, §8, §5

[12] = tested on: barnyard grass; assay: Soil treatment test for upland field; assay type: in vivo, Eschinochloa crusgalli; design: key: 0 = normal development, 5 = all killed; settings: 500 g/ha, 3 weeks, glass house 25° C.
Protocol: as §1, §2, §3, §4, §5

[13] = tested on: common lambsquarters; assay: Foliar spread test for upland field; assay type: in vivo, Chenopodium album; design: key: 0 = normal development, 5 = all killed (6 ranks vs. untreated); settings: foliar spray, 500 ppm, 3 weeks, glass house 25° C.
Protocol: as §1, §6, §7, §8, §5

[14] = tested on: wheat; assay: Foliar spread test for upland field; assay type: in vivo; design: key: 0 = normal development, 5 = all killed (6 ranks vs. untreated); settings: foliar spray, 500 ppm, 3 weeks, glass house 25° C.
Protocol: as §1, §6, §7, §8, §5

[15] = tested on: annual bluegrass; assay: Foliar spread test for upland field; assay type: in vivo, Poa annua; design: key: 0 = normal development, 5 = all killed (6 ranks vs. untreated); settings: foliar spray, 500 ppm, 3 weeks, glass house 25° C.
Protocol: as §1, §6, §7, §8, §5

[16] = tested on: blackgrass; assay: Soil treatment test for upland field; assay type: in vivo, Alopecurus aegualis; design: key: 0 = normal development, 5 = all killed; settings: 500 g/ha, 3 weeks, glass house 25° C.
Protocol: as §1, §2, §3, §4, §5

[17] = tested on: velvetleaf; assay: Soil treatment test for upland field; assay type: in vivo, Abutilon theophrasti; design: key: 0 = normal development, 5 = all killed; settings: 500 g/ha, 3 weeks, glass house 25° C.
Protocol: as §1, §2, §3, §4, §5

[18] = tested on: solgum; assay: Soil treatment test for upland field; assay type: in vivo; design: key: 0 = normal development, 5 = all killed; settings: 500 g/ha, 3 weeks, glass house 25° C.
Protocol: as §1, §2, §3, §4, §5

[19] = tested on: sugar beat; assay: Soil treatment test for upland field; assay type: in vivo; design: key: 0 = normal development, 5 = all killed; settings: 500 g/ha, 3 weeks, glass house 25° C.
Protocol: as §1, §2, §3, §4, §5

[20] = tested on: blackgrass; assay: Foliar spread test for upland field; assay type: in vivo, Alopecurus aegualis; design: key: 0 = normal development, 5 = all killed (6 ranks vs. untreated); settings: foliar spray, 500 ppm, 3 weeks, glass house 25° C.
Protocol: as §1, §6, §7, §8, §5

[21] = tested on: morning glory; assay: Soil treatment test for upland field; assay type: in vivo, Ipomoea spps.; design: key: 0 = normal development, 5 = all killed; settings: 500 g/ha, 3 weeks, glass house 25° C.
Protocol: as §1, §2, §3, §4, §5

[22] = tested on: velvetleaf; assay: Foliar spread test for upland field; assay type: in vivo, Abutilon theophrasti; design: key: 0 = normal development, 5 = all killed (6 ranks vs. untreated); settings: foliar spray, 500 ppm, 3 weeks, glass house 25° C.
Protocol: as §1, §6, §7, §8, §5

[23] = tested on: barnyardgrjass; assay: Foliar spread test for upland field; assay type: in vivo, Eschinochloa crusgalli; design: key: 0 = normal development, 5 = all killed (6 ranks vs. untreated); settings: foliar spray, 500 ppm, 3 weeks, glass house 25° C.
Protocol: as §1, §6, §7, §8, §5

[24] = tested on: morning glory; assay: Foliar spread test for upland field; assay type: in vivo, Ipomoea spps.; design: key: 0 = normal development, 5 = all killed (6 ranks vs. untreated); settings: foliar spray, 500 ppm, 3 weeks, glass house 25° C.
Protocol: as §1, §6, §7, §8, §5

[25] = tested on: solgum; assay: Foliar spread test for upland field; assay type: in vivo; design: key: 0 = normal development, 5 = all killed (6 ranks vs. untreated); settings: foliar spray, 500 ppm, 3 weeks, glass house 25° C.
Protocol: as §1, §6, §7, §8, §5

[26] = tested on: soybean; assay: Foliar spread test for upland field; assay type: in vivo; design: key: 0 = normal development, 5 = all killed (6 ranks vs. untreated); settings: foliar spray, 500 ppm, 3 weeks, glass house 25° C.
Protocol: as §1, §6, §7, §8, §5

[27] = tested on: cotton; assay: Foliar spread test for upland field; assay type: in vivo; design: key: 0 = normal development, 5 = all killed (6 ranks vs. untreated); settings: foliar spray, 500 ppm, 3 weeks, glass house 25° C.
Protocol: as §1, §6, §7, §8, §5

[28] = tested on: sugar beat; assay: Foliar spread test for upland field; assay type: in vivo; design: key: 0 = normal development, 5 = all killed (6 ranks vs. untreated); settings: foliar spray, 500 ppm, 3 weeks, glass house 25° C.
Protocol: as §1, §6, §7, §8, §5

[29] = tested on: corn; assay: Foliar spread test for upland field; assay type: in vivo; design: key: 0 = normal development, 5 = all killed (6 ranks vs. untreated); settings: foliar spray, 500 ppm, 3 weeks, glass house 25° C.
Protocol: as §1, §6, §7, §8, §5

SMILES	Effects Wheat [2]	Effects Corn [3]	Effects Green foxtail [4]	Effects Common lambsquarters [5]	Effects Large crabgrass [6]	Effects Livid amaranth [7]	Effects Large crabgrass [8]	Effects Annual bluegrass [9]	Effects Livid amaranth [10]	Effects Green foxtail [11]	Effects Barnyardgrass [12]	Effects Common lambsquarters [13]	Effects Wheat [14]	Effects Annual bluegrass [15]	Effects Blackgrass [16]	Effects Velvetleaf [17]	Effects Solgum [18]	Effects Sugar beat [19]	Effects Blackgrass [20]	Effects Corn [29]	other results
CCCC(Oc1cc(C)nc(SC)n1)c1nc2cc(C#N)c(F)cc2o1 (centres unmarked) [Compound 1-e-65]	0	0	4	2	4	5															Effects Soybean [1]: 0
CCC(Oc1cc(C(F)(F)F)on1)c1nc2cc(C#N)c(F)cc2o1 (centres unmarked) [I-e-40, 1-(5-cyano-6-fluorobenzoxazol-2-yl)-1-(5-trifluoromethylisoxazol-3-yloxy)propane]	0	1	5	5	5	5	4	5	5	4	5	5	2								Effects Soybean [1]: 2
CCCC(=Cc1cccc(C(F)(F)F)c1)c1nc2cc(C#N)ccc2o1 [I-c-83]	1	2	5	5	5	5	4	5	5	5	4	5	2	4	5	5	1	5	4	3	Effects Morning glory [21]: 5; Effects Velvetleaf [22]: 4; Effects Barnyardgrass [23]: 2; Effects Morning glory [24]: 5; Effects Solgum [25]: 3; Effects Soybean [26]: 4; Effects Sotton [27]: 5; Effects Sugar beat [28]: 5
CCCC(=Cc1cccc(C(F)(F)F)c1)c1nc2cc(F)ccc2o1 [I-c-44]	2	2	5	5	5	5	4	5	5	4	5	5	2	4	5	3	3	5	3	2	Effects Morning glory [21]: 2; Effects Velvetleaf [22]: 2; Effects Barnyardgrass [23]: 2; Effects Morning glory [24]: 5; Effects Solgum [25]: 2; Effects Soybean [26]: 5; Effects Sotton [27]: 3; Effects Sugar beat [28]: 3
CCC(Oc1cc(C(F)(F)F)nn1C)c1nc2cc(Cl)ccc2o1 (centres unmarked) [Compound 1-e-2]	0	0	3	2	3	5		3	4	2		3	1							1	Effects Soybean [1]: 0
CCCC(=Cc1cccc(C(F)(F)F)c1)c1nc2cc([N+](=O)[O-])ccc2o1 [I-c-74]	1	2	5	5	5	5	4	5	5	5	5	5	2	4	4	5	2	5	2	2	Effects Morning glory [21]: 5; Effects Velvetleaf [22]: 4; Effects Barnyardgrass [23]: 2; Effects Morning glory [24]: 5; Effects Solgum [25]: 2; Effects Soybean [26]: 5; Effects Sotton [27]: 5; Effects Sugar beat [28]: 4
CCC(=Cc1cccc(C(F)(F)F)c1)c1nc2cc(Br)ccc2o1 [I-c-67]	1	2	5	5	5	5	4	5	5	4	5	5	2	4	5	5	5	5	4	3	Effects Morning glory [21]: 4; Effects Velvetleaf [22]: 4; Effects Barnyardgrass [23]: 3; Effects Morning glory [24]: 5; Effects Solgum [25]: 3; Effects Soybean [26]: 5; Effects Sotton [27]: 5; Effects Sugar beat [28]: 4
